Source: US20230143604A1, “QW DOSING OF GIP RECEPTOR AGONIST PEPTIDE COMPOUNDS AND USES THEREOF” (TAKEDA PHARMACEUTICAL COMPANY LIMITED, priority 2020, published 2023)
Starred links: 1 amine or outer side, 2 acyl side, 3 side chain; linkers in the order of their positions; H or OH if unused. Non-standard residues stand in square brackets, D forms with d. Residues, ends and D or L forms follow the SMILES beside them. Groups on a side chain read outwards from the residue. *: point of attachment. C18 diacid = O=C(O)CCCCCCCCCCCCCCCCC(=O)*; γGlu = O=C(O)[C@H](CCC(=O)[*:2])N[*:1]; NMeY = CN[C@@H](Cc1ccc(O)cc1)C(=O)O; AEEA = NCCOCCOCC(=O)O; Aib = CC(C)(N)C(=O)O

experiment: physchem; conditions: pH 7.4
Outline: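 Solubility at pH 7.4 determined by stepwise addition of 200 mM phosphate buffer in 100 μL increments to 3 mg peptide, mixing briefly each time, until no insoluble material remained, then measured by liquid chromatography.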

Row | Compound | solubility
1 | CC[C@H](C)[C@H](NC(=O)[C@H](CO)NC(=O)[C@H](Cc1ccc(O)cc1)NC(=O)[C@H](CC(=O)O)NC(=O)[C@H](CO)NC(=O)[C@@H](NC(=O)[C@H](Cc1ccccc1)NC(=O)[C@@H](NC(=O)CNC(=O)[C@H](CCC(=O)O)NC(=O)C(C)(C)NC(=O)[C@H](Cc1ccc(O)cc1)NC)[C@@H](C)O)[C@@H](C)CC)C(=O)N[C@@H](C)C(=O)N[C@@H](CC(C)C)C(=O)N[C@@H](CC(=O)O)C(=O)N[C@@H](CCCNC(=N)N)C(=O)N[C@@H](C)C(=O)N[C@@H](C)C(=O)N[C@@H](CCC(N)=O)C(=O)N[C@@H](CCC(N)=O)C(=O)N[C@@H](CCCCNC(=O)COCCOCCNC(=O)COCCOCCNC(=O)CC[C@H](NC(=O)CC[C@H](NC(=O)CCCCCCCCCCCCCCCCC(=O)O)C(=O)O)C(=O)O)C(=O)N[C@@H](Cc1ccccc1)C(=O)N[C@H](C(=O)N[C@@H](CC(N)=O)C(=O)N[C@@H](Cc1c[nH]c2ccccc12)C(=O)N[C@@H](CC(C)C)C(=O)N[C@@H](CC(C)C)C(=O)N[C@@H](C)C(=O)N[C@@H](CCC(N)=O)C(=O)N[C@@H](CO)C(=O)N1CCC[C@H]1C(=O)NCC(=O)O)C(C)C [Compound 178] (H-[NMeY][Aib]EGTFISDYSIALDRAAQQK([AEEA-AEEA-γGlu-γGlu-C18 diacid])FVNWLLAQSPG-OH) | ≥ 15000 µg/mL
2 | CC[C@H](C)[C@H](NC(=O)[C@H](CCCNC(=N)N)NC(=O)[C@H](CC(=O)O)NC(=O)[C@H](CCCCNC(=O)CNC(=O)CNC(=O)CNC(=O)CNC(=O)CNC(=O)CCCCCCCCCCCCCCCCC(=O)O)NC(=O)[C@H](C)NC(=O)[C@@H](NC(=O)[C@H](CO)NC(=O)[C@H](Cc1ccc(O)cc1)NC(=O)[C@H](CC(=O)O)NC(=O)[C@H](CO)NC(=O)[C@@H](NC(=O)[C@H](Cc1ccccc1)NC(=O)[C@@H](NC(=O)CNC(=O)[C@H](CCC(=O)O)NC(=O)C(C)(C)NC(=O)[C@H](Cc1ccc(O)cc1)NC)[C@@H](C)O)[C@@H](C)CC)[C@@H](C)CC)C(=O)N[C@@H](C)C(=O)N[C@@H](CCC(N)=O)C(=O)N[C@@H](CCCNC(=N)N)C(=O)N[C@@H](CC(N)=O)C(=O)N[C@@H](Cc1ccccc1)C(=O)N[C@H](C(=O)N[C@@H](CCC(=O)O)C(=O)N[C@@H](Cc1c[nH]c2ccccc12)C(=O)N[C@@H](CC(C)C)C(=O)N[C@@H](CC(C)C)C(=O)N[C@@H](C)C(=O)N[C@@H](CCC(N)=O)C(=O)N[C@@H](CO)C(=O)N1CCC[C@H]1C(=O)NCC(=O)O)C(C)C [Compound 180] | ≥ 15000 µg/mL

same assay, conditions: pH 7.4, aqueous buffer

Row | Compound | solubility
3 | CC[C@H](C)[C@H](NC(=O)[C@H](CO)NC(=O)[C@H](Cc1ccc(O)cc1)NC(=O)[C@H](CC(=O)O)NC(=O)[C@H](CO)NC(=O)[C@@H](NC(=O)[C@H](Cc1ccccc1)NC(=O)[C@@H](NC(=O)CNC(=O)[C@H](CCC(=O)O)NC(=O)C(C)(C)NC(=O)[C@H](Cc1ccc(O)cc1)NC)[C@@H](C)O)[C@@H](C)CC)C(=O)N[C@@H](C)C(=O)N[C@@H](CC(C)C)C(=O)N[C@@H](CC(=O)O)C(=O)N[C@@H](CCCNC(=N)N)C(=O)N[C@@H](C)C(=O)N[C@@H](C)C(=O)N[C@@H](CCC(N)=O)C(=O)N[C@@H](CCC(N)=O)C(=O)N[C@@H](CCCCNC(=O)COCCOCCNC(=O)COCCOCCNC(=O)CC[C@H](NC(=O)CC[C@H](NC(=O)CCCCCCCCCCCCCCCCC(=O)O)C(=O)O)C(=O)O)C(=O)N[C@@H](Cc1ccccc1)C(=O)N[C@H](C(=O)N[C@@H](CC(N)=O)C(=O)N[C@@H](Cc1c[nH]c2ccccc12)C(=O)N[C@@H](CC(C)C)C(=O)N[C@@H](CC(C)C)C(=O)N[C@@H](C)C(=O)N[C@@H](CCC(N)=O)C(=O)N[C@@H](CO)C(=O)N1CCC[C@H]1C(=O)NCC(=O)O)C(C)C [Compound 178] (H-[NMeY][Aib]EGTFISDYSIALDRAAQQK([AEEA-AEEA-γGlu-γGlu-C18 diacid])FVNWLLAQSPG-OH) | ≥ 30000 µg/mL
4 | CC[C@H](C)[C@H](NC(=O)[C@H](CO)NC(=O)[C@H](Cc1ccc(O)cc1)NC(=O)[C@H](CC(=O)O)NC(=O)[C@H](CO)NC(=O)[C@@H](NC(=O)[C@H](Cc1ccccc1)NC(=O)[C@@H](NC(=O)CNC(=O)[C@H](CCC(=O)O)NC(=O)[C@@H](C)NC(=O)[C@H](Cc1ccc(O)cc1)NC)[C@@H](C)O)[C@@H](C)CC)C(=O)N[C@@H](C)C(=O)N[C@@H](CC(C)C)C(=O)N[C@@H](CC(=O)O)C(=O)N[C@@H](CCCNC(=N)N)C(=O)N[C@H](C(=O)N[C@@H](Cc1c[nH]cn1)C(=O)N[C@@H](CCC(N)=O)C(=O)N[C@@H](CCC(N)=O)C(=O)N[C@@H](CC(N)=O)C(=O)N[C@@H](Cc1ccccc1)C(=O)N[C@H](C(=O)N[C@@H](CC(N)=O)C(=O)N[C@@H](Cc1c[nH]c2ccccc12)C(=O)N[C@@H](CC(C)C)C(=O)N[C@@H](CC(C)C)C(=O)N[C@@H](C)C(=O)N[C@@H](CCC(N)=O)C(=O)N[C@@H](CCCCNC(=O)COCCOCCNC(=O)COCCOCCNC(=O)CC[C@H](NC(=O)CCCCCCCCCCCCCCCCC(=O)O)C(=O)O)C(=O)O)C(C)C)[C@@H](C)CC [Compound 243] (H-[NMeY][dA]EGTFISDYSIALDRIHQQNFVNWLLAQK([AEEA-AEEA-γGlu-C18 diacid])-OH; N-terminus and C-terminus assumed) | ≥ 7000 µg/mL
5 | CC[C@H](C)[C@H](NC(=O)[C@H](CO)NC(=O)[C@H](Cc1ccc(O)cc1)NC(=O)[C@H](CC(=O)O)NC(=O)[C@H](CO)NC(=O)[C@@H](NC(=O)[C@H](Cc1ccccc1)NC(=O)[C@@H](NC(=O)CNC(=O)[C@H](CCC(=O)O)NC(=O)C(C)(C)NC(=O)[C@H](Cc1ccc(O)cc1)NC(C)=O)[C@@H](C)O)[C@@H](C)CC)C(=O)N[C@@H](C)C(=O)N[C@@H](CC(C)C)C(=O)N[C@@H](CC(=O)O)C(=O)N[C@@H](CCCNC(=N)N)C(=O)N[C@H](C(=O)N[C@@H](Cc1c[nH]cn1)C(=O)N[C@@H](CCC(N)=O)C(=O)N[C@@H](CCC(N)=O)C(=O)N[C@@H](CC(N)=O)C(=O)N[C@@H](Cc1ccccc1)C(=O)N[C@H](C(=O)N[C@@H](CC(N)=O)C(=O)N[C@@H](Cc1c[nH]c2ccccc12)C(=O)N[C@@H](CC(C)C)C(=O)N[C@@H](CC(C)C)C(=O)N[C@@H](C)C(=O)N[C@@H](CCC(N)=O)C(=O)N[C@@H](CCCCNC(=O)COCCOCCNC(=O)COCCOCCNC(=O)CC[C@H](NC(=O)CCCCCCCCCCCCCCCCC(=O)O)C(=O)O)C(=O)O)C(C)C)[C@@H](C)CC [Compound 244] (Ac-Y[Aib]EGTFISDYSIALDRIHQQNFVNWLLAQK([AEEA-AEEA-γGlu-C18 diacid])-OH; C-terminus assumed) | ≥ 9400 µg/mL
6 | CC[C@H](C)[C@H](NC(=O)[C@H](CO)NC(=O)[C@H](Cc1ccc(O)cc1)NC(=O)[C@H](CC(=O)O)NC(=O)[C@H](CO)NC(=O)[C@@H](NC(=O)[C@H](Cc1ccccc1)NC(=O)[C@@H](NC(=O)CNC(=O)[C@H](CCC(=O)O)NC(=O)C(C)(C)NC(=O)[C@H](Cc1ccc(O)cc1)NC)[C@@H](C)O)[C@@H](C)CC)C(=O)N[C@@H](C)C(=O)N[C@@H](CCCCNC(=O)COCCOCCNC(=O)COCCOCCNC(=O)CC[C@H](NC(=O)CCCCCCCCCCCCCCCCC(=O)O)C(=O)O)C(=O)N[C@@H](CC(=O)O)C(=O)N[C@@H](CCCNC(=N)N)C(=O)N[C@H](C(=O)N[C@@H](Cc1c[nH]cn1)C(=O)N[C@@H](CCC(N)=O)C(=O)N[C@@H](CCC(N)=O)C(=O)N[C@@H](CC(N)=O)C(=O)N[C@@H](Cc1ccccc1)C(=O)N[C@H](C(=O)N[C@@H](CC(N)=O)C(=O)N[C@@H](Cc1c[nH]c2ccccc12)C(=O)N[C@@H](CC(C)C)C(=O)N[C@@H](CC(C)C)C(=O)N[C@@H](C)C(=O)N[C@@H](CCC(N)=O)C(=O)N[C@@H](CCCCN)C(=O)O)C(C)C)[C@@H](C)CC [Compound 245] (H-[NMeY][Aib]EGTFISDYSIAK([AEEA-AEEA-γGlu-C18 diacid])DRIHQQNFVNWLLAQK-OH; C-terminus assumed) | ≥ 7500 µg/mL
7 | CC[C@H](C)[C@H](NC(=O)[C@H](CO)NC(=O)[C@H](Cc1ccc(O)cc1)NC(=O)[C@H](CC(=O)O)NC(=O)[C@H](CO)NC(=O)[C@@H](NC(=O)[C@H](Cc1ccccc1)NC(=O)[C@@H](NC(=O)CNC(=O)[C@H](CCC(=O)O)NC(=O)C(C)(C)NC(=O)[C@H](Cc1ccc(O)cc1)NC)[C@@H](C)O)[C@@H](C)CC)C(=O)N[C@@H](C)C(=O)N[C@@H](CC(C)C)C(=O)N[C@@H](CC(=O)O)C(=O)N[C@@H](CCCNC(=N)N)C(=O)N[C@@H](CCCCNC(=O)COCCOCCNC(=O)COCCOCCNC(=O)CC[C@H](NC(=O)CCCCCCCCCCCCCCCCC(=O)O)C(=O)O)C(=O)N[C@@H](Cc1c[nH]cn1)C(=O)N[C@@H](CCC(N)=O)C(=O)N[C@@H](CCC(N)=O)C(=O)N[C@@H](CC(N)=O)C(=O)N[C@@H](Cc1ccccc1)C(=O)N[C@H](C(=O)N[C@@H](CC(N)=O)C(=O)N[C@@H](Cc1c[nH]c2ccccc12)C(=O)N[C@@H](CC(C)C)C(=O)N[C@@H](CC(C)C)C(=O)N[C@@H](C)C(=O)N[C@@H](CCC(N)=O)C(=O)N[C@@H](CCCCN)C(=O)O)C(C)C [Compound 246] (H-[NMeY][Aib]EGTFISDYSIALDRK([AEEA-AEEA-γGlu-C18 diacid])HQQNFVNWLLAQK-OH; C-terminus assumed) | ≥ 700 µg/mL
8 | CC[C@H](C)[C@H](NC(=O)[C@H](CO)NC(=O)[C@H](Cc1ccc(O)cc1)NC(=O)[C@H](CC(=O)O)NC(=O)[C@H](CO)NC(=O)[C@@H](NC(=O)[C@H](Cc1ccccc1)NC(=O)[C@@H](NC(=O)CNC(=O)[C@H](CCC(=O)O)NC(=O)C(C)(C)NC(=O)[C@H](Cc1ccc(O)cc1)NC)[C@@H](C)O)[C@@H](C)CC)C(=O)N[C@@H](C)C(=O)N[C@@H](CC(C)C)C(=O)N[C@@H](CC(=O)O)C(=O)N[C@@H](CCCNC(=N)N)C(=O)N[C@H](C(=O)N[C@@H](Cc1c[nH]cn1)C(=O)N[C@@H](CCC(N)=O)C(=O)N[C@@H](CCCCNC(=O)COCCOCCNC(=O)COCCOCCNC(=O)CC[C@H](NC(=O)CCCCCCCCCCCCCCCCC(=O)O)C(=O)O)C(=O)N[C@@H](CC(N)=O)C(=O)N[C@@H](Cc1ccccc1)C(=O)N[C@H](C(=O)N[C@@H](CC(N)=O)C(=O)N[C@@H](Cc1c[nH]c2ccccc12)C(=O)N[C@@H](CC(C)C)C(=O)N[C@@H](CC(C)C)C(=O)N[C@@H](C)C(=O)N[C@@H](CCC(N)=O)C(=O)N[C@@H](CCCCN)C(=O)O)C(C)C)[C@@H](C)CC [Compound 247] (H-[NMeY][Aib]EGTFISDYSIALDRIHQK([AEEA-AEEA-γGlu-C18 diacid])NFVNWLLAQK-OH; C-terminus assumed) | ≥ 9900 µg/mL
9 | CC[C@H](C)[C@H](NC(=O)[C@H](CO)NC(=O)[C@H](Cc1ccc(O)cc1)NC(=O)[C@H](CC(=O)O)NC(=O)[C@H](CO)NC(=O)[C@@H](NC(=O)[C@H](Cc1ccccc1)NC(=O)[C@@H](NC(=O)CNC(=O)[C@H](CCC(=O)O)NC(=O)C(C)(C)NC(=O)[C@H](Cc1ccc(O)cc1)NC)[C@@H](C)O)[C@@H](C)CC)C(=O)N[C@@H](C)C(=O)N[C@@H](CC(C)C)C(=O)N[C@@H](CC(=O)O)C(=O)N[C@@H](CCCNC(=N)N)C(=O)N[C@H](C(=O)N[C@@H](Cc1c[nH]cn1)C(=O)N[C@@H](CCC(N)=O)C(=O)NC(C)(C)C(=O)N[C@@H](CC(N)=O)C(=O)N[C@@H](Cc1ccccc1)C(=O)N[C@H](C(=O)N[C@@H](CC(N)=O)C(=O)N[C@@H](Cc1c[nH]c2ccccc12)C(=O)N[C@@H](CC(C)C)C(=O)N[C@@H](CC(C)C)C(=O)N[C@@H](C)C(=O)N[C@@H](CCC(N)=O)C(=O)N[C@@H](CCCCNC(=O)COCCOCCNC(=O)COCCOCCNC(=O)CC[C@H](NC(=O)CCCCCCCCCCCCCCCCC(=O)O)C(=O)O)C(=O)O)C(C)C)[C@@H](C)CC [Compound 248] (H-[NMeY][Aib]EGTFISDYSIALDRIHQ[Aib]NFVNWLLAQK([AEEA-AEEA-γGlu-C18 diacid])-OH; C-terminus assumed) | ≥ 6800 µg/mL
